Tests used:
[1] = biological target: recombinant ROCK2 (amino acids 1-552) (Homo sapiens (Human), UniProt O75116); test: Z'-lyte kinase assay, ROCK2; format: biochemical
Method in brief: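 Inhibition of recombinant human ROCK2 (residues 1-552, sourced from ThermoFisher Scientific) was assessed in vitro with the Z'-lyte kinase kit. Kinase activity with compound was normalized to DMSO control to give percent inhibition. IC50s came from 9-point 2-fold serial dilutions fitted by nonlinear regression in GraphPad Prism.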

[2] = test system: ppMlc (T18/S19) and pMypt (T853) in Svec 4-10 mouse endothelial cells; test: Western blot of Svec 4-10 cell lysates; format: cell-based; details: 110 nM, 120 min
Description: FIG. 1d. Western blot of SVEC4-10 cell lysates to visualize ppMlc (T18/S19) & pMYPT (T853) levels following treatment with the compound of Example 2 for 120 min. SVEC4-10 cells were treated with the compound and phosphorylated proteins were visualized by western blotting.
Compounds ROCK activities were tested in additional cell types. Svec 4-10 mouse endothelial cells were treated with the compound of Example 2 for 120 min and ppMlc (T18/S19) and pMypt (T853) levels were visualized by western blotting.

[3] = biological target: recombinant ROCK1 (amino acids 1-535) (Homo sapiens (Human), UniProt Q13464); test: Z'-lyte kinase assay, ROCK1; format: biochemical
recombinant ROCK1 (amino acids 1-535), sequence (Q13464 1-535): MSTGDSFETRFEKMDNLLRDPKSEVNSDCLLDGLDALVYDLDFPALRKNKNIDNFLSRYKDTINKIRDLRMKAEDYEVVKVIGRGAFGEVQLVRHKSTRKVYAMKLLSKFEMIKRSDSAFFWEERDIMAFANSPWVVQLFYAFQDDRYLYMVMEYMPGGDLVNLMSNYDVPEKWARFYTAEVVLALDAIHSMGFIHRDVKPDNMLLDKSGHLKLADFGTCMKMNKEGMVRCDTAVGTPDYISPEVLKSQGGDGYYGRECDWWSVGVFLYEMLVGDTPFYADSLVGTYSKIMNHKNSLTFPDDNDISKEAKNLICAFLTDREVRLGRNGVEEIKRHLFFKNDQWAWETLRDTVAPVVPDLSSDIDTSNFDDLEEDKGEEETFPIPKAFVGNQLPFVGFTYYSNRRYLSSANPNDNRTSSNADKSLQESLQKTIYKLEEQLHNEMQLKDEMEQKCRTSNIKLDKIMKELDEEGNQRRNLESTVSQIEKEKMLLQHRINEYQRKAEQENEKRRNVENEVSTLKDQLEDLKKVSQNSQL
Description: Determination of compounds ROCK inhibitory activity in vitro (Z'lyte assay): recombinant ROCK1 (amino acids 1-535) and ROCK2 (amino acids 1-552) proteins were purchased from ThermoFisher Scientific. Compounds activities were measured by Z'-lyte kinase kit (ThermoFisher Scientific) and IC50s were calculated.
Compounds activities were measured by Z'-lyte kinase kit (ThermoFisher Scientific). […] IC50s were calculated using the GraphPad Prism software with kinase activities data that were collected from 9 points serial dilution of compounds treatment. The ROCK inhibition in A7R5 cells and NIH3T3 (Acta2-Luc) cells was performed as described above.
The percent inhibition rate was calculated by normalizing the kinase activity value obtained with compound treatment against DMSO control value and then applied to the equation, […]. IC50's were calculated using the nonlinear regression curve fit function of the GraphPad Prism software with kinase activities data measured with 9 points 2-fold serial dilution of compounds treatment.

[4] = test system: bleomycin induced lung fibrosis; test: Bleomycin induced lung fibrosis in mice (prophylactic administration); format: in vivo, mouse; details: oral once daily, 21-day treatment; ≥10 mg/kg
Description: Bleomycin induced lung fibrosis in mice (Phrophylactic administration): Male C57B/L6 mice were ear tagged and weighed prior to the start of the study. Treatment group animals were treated with the compound on day −1 pre-bleomycin and all subsequent days post-bleomycin administration. On day 0, animals in disease groups received 1.5 U/kg dose of bleomycin via oropharyngeal route. The non-bleomycin control group received sterile saline. Animals were closely monitored daily till the end of the study. On day 21 following bleomycin administration, all animals were euthanized and blood, lung, and bronchoalveolar lavage (BAL) fluid were collected. Blood samples were used for plasma preparation; total leukocytes were counted in BAL fluid; and lungs were fixed in 10% neutral buffered formalin for histopathological analysis. Based on the strong anti-fibrotic cellular activity of ROCK inhibitors of this invention, the ability of such inhibitors to attenuate fibrosis in the in vivo setting was assessed in several mouse models of fibrotic diseases including the bleomycin induced pulmonary fibrosis. […] The improvement in the overall lung fibrosis, α-smooth muscle actin (αSMA) percentage positive area and total leukocytes count in bronchoalveolar lavage fluid was quantitated by applying the Ashcoft score criteria to the histopathology images, IHC quantitation and flowcytometry respectively.

[5] = test system: histamine-induced vascular permeability; test: Histamine-induced vascular permeability model in mice; format: in vivo, mouse; details: single oral dose 1 hr. prior to histamine injection
Description: Histamine-induced vascular permeability model in mice: 7-8 weeks old Balb/c female mice were acclimated at least 3 days, and randomly assigned to groups. Animals were injected i.v. with 1% Evans Blue at a dose 100 μl/mouse. 10 minutes later animals in disease groups were given 1 μg of histamine in 20 μl PBS intradermally on the back and sacrificed 20 minutes after administration. 20 μL PBS were injected intradermal into the animal back in sham control. Vehicle and test articles were dosed via oral gavage accordingly. Positive control salbutamol was administered 15 minutes before Evans blue. 20 minutes post challenge with histamine, animals were euthanized. The skin was then inverted, the lesion diameters were measured. The area of the lesion was calculated and expressed in square millimeters. Following diameter measurements, Evan's Blue dye was extracted from the skin tissue and the optical density was measured. Data are calculated against a spiked in Evan's Blue standard curve. The extent of compound efficacy was quantitated by calculating both the overall skin spot area and the amount of Evans Blue dye permeating the skin. 20 Minutes post challenge with histamine, animals were euthanized, the lesion diameters were measured. The area of the lesion was calculated and expressed in square millimeters. […]

[6] = test system: human oligodendrocyte/neuron progenitor cells; test: Neurite outgrowth and differentiation of human oligodendrocyte/neuron progenitors; format: cell-based
Description: Thawing and proliferation of human oligodendrocyte/neuron progenitor cells (OPCs). Cryopreserved human oligodendrocyte/neuron progenitors (Millipore Cat. No. CS204496) were recovered and cultured on maltrigel (BD Cat. No. 356324) coated T-25 flask in expansion media containing OPC/neuron basal medium, N21 medium supplement, recombinant human bFGF, PDGF-AA and NT-3. When cells reached 80% confluent, 3 ml of Accutase was applied (Millipore SCR005) to passage cells at 1:4 ratio. Sub-cultured cells were maintained in expansion media for proliferation.
Spontaneous differentiation of human oligodendrocyte/neuron progenitors in 24-well and 96-well plates. Coat plate with 10 μg/ml poly-L-ornithine (Sigma Cat. No. P4957) overnight at room temperature. Remove the poly-L-ornithine solution and rinse the plate with 1×PBS, add 10 μg/ml laminin (Millipore Cat. No. CC095) and incubate at 37° C. for at least 2 hours. Seed cells on the coated plates in expansion media and allowed to attach overnight. The next day expansion media was removed and replaced with freshly prepared spontaneous differentiation media only containing OPC/neuron basal media and N21 media supplement. For 14 day culture, differentiation media was replaced every 3-4 days. Cells were imaged and neurite length was analyzed by IncuCyte S3 Live Cell Analysis System every 4 hours. After 14 days of differentiation, cells were fixed by 4% paraformaldehyde and stained with DAPI and Neuron-specific ß-III tubulin antibody (R&D systems, NL1195R).

recombinant ROCK2 (amino acids 1-552), sequence (O75116 1-552): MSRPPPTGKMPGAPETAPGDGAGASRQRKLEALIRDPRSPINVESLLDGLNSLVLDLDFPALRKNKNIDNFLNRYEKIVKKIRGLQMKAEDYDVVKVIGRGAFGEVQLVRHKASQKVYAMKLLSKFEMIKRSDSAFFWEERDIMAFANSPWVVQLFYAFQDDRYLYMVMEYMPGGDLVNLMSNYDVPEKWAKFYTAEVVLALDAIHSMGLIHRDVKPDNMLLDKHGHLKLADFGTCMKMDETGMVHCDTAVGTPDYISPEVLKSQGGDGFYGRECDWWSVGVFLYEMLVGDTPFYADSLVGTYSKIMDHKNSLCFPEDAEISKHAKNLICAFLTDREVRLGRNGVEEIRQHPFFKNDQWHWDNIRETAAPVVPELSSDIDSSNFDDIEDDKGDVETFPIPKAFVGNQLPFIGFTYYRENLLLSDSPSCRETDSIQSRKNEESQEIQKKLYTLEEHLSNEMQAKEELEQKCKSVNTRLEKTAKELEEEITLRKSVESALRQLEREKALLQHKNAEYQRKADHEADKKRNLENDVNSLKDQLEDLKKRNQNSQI

IC50 [1]: 4 nM
IC50 [3]: 17 nM
Structure (SMILES): CNC(C(=O)Nc1ccc(-c2cn[nH]c2)cc1)c1cccc(OC)c1 (stereo not shown) [Example 2, N-(4-(1H-pyrazol-4-yl)phenyl)-2-(3-methoxyphenyl)-2-(methylamino)acetamide]
phosphorylation of ROCK targets MLC and MYPT1 [2]: efficiently blocked phosphorylation
Ashcroft fibrotic indices, αSMA percentage positive area and total leukocytes count in bronchoalveolar lavage fluid [4]: positive activity
vascular permeability induced by histamine (Evan's Blue extravasation) [5]: blocked the vascular permeability induced by histamine in a dose dependent manner
neuronal differentiation and maturation ([6]; 14 days culture, Beta III tubulin): facility neuronal differentiation and maturation
neurite length ([6]; various concentrations, 3 days culture): significantly increase neurite length

From patent US11479533B2, “Inhibitors of Rho associated coiled-coil containing protein kinase” (KADMON CORPORATION, LLC, priority 2017, dated 2022)
